These are literature values, as cited in patent US20220257611A1 (APTYS Pharmaceuticals SAS, priority 2019, published 2022).

For data set [1] the following is noted: in vivo.
For data set [2] the following is noted: in vivo. This is another data set of the same source.

For `CC(=O)Nc1ccc(O)cc1` [acetaminophen, N-acetyl-p-amino-phenol], in data set [1], the “median effective analgesic dose (median value and 95% confidence interval)” value was 500 mg.

`CN1CCOC(c2ccccc2)c2ccccc2C1` (centres unmarked) [nefopam, 5-methyl-1-phenyl-1,3,4,6-tetrahydro-2,5-benzoxazocine]: the elimination half-life result in data set [2] is recorded as “four”.
